Results published in patent publication US11795199B2, “Peptide targeting Mycobacterium tuberculosis toxin-antitoxin system and use thereof” (Seoul National University R&DB Foundation, priority 2017, dated 2023).

Key:
[1] = target: T1, VapBC26 protein complex containing Y51E (Mycobacterium tuberculosis, UniProt O53778, Y51E)
[2] = target: T1, VapBC26 protein complex containing Y51E; remark: listed apart in the source

DAELAVLRELAG [mimetic peptide for VapC26 α4]
calculated area corresponding to VapC26, larger than with the native protein complex [1]: 15.42%
fluorescence increase in Y51E [2]: 15.07%
